According to US4883801A, “Xanthine derivative pest control agents” (priority 1986, dated 1989):
“Also recorded” adds a separate entry of the source.

How the values were obtained:
[1] = test system: Manduca sexta (tobacco hornworm) larvae; test: Antifeeding test: tomato leaves sprayed with compound, tobacco hornworm larvae; format: in vivo; details: for Vmax (percent inhibition of feeding at the highest dose used): highest dose usually a 3% spray solution; for EC50 (spray concentration required to cause 50% inhibition of feeding): spray on tomato leaves, calculated from dose-response curves, Manduca sexta 6 per leaf
[2] = test system: hornworm nerve cord PDE (cyclic AMP phosphodiesterase); test: Inhibition of cyclic AMP phosphodiesterase activity in homogenates of tobacco hornworm nerve cord; format: biochemical, Manduca sexta; details: for activity of structurally similar compounds tested as described in Example 46: Example 47
Description: Nerve cord was dissected from 40-60 mm long M. sexta larvae, cleaned, and homogenized (2 mg/ml) in 6 Mm Tris-maleate, pH 7.4. PDE activity was measured (4 min. incubation at 30° C.) in an assay system (0.1 ml) containing 80 mM Tris-maleate, pH 7.4; 6 mM Mg--SO4; 10^-7 M^3 H-cyclic AMP; and tissue homogenate (0.02 ml). Nerve cord was evaluated in the presence and the absence of the xanthine derivative. For purposes of the evaluation, the rate of formation of ^3 H-5' AMP was measured using the technique described in Filburn, C. […] The values shown in FIG. 1D are the mean (±SEM) of three separate experiments.

adenosine receptor = details: Bruns et al., cited from earlier work
[3] = test system: cockroach brain adenylate cyclase; details: in vitro; cited from earlier work
[4] = test system: cockroach brain phosphodiesterase; details: in vitro; cited from earlier work
[5] = test system: Tribolium castaneum (flower beetle) adults; test: Tribolium castaneum adults: acute effect and chronic reproduction test; format: in vivo
[6] = test system: Tribolium confusum (flower beetle) adults; test: Tribolium confusum adults: acute effect and chronic reproduction test; format: in vivo
Culex (mosquito) larvae = test: Killing of Culex larvae in solution; format: in vivo

In the case of Cn1c(=O)c2c(ncn2CCCl)n(C)c1=O [Example 24, 1,3-dimethyl,7-(2-chlorethyl)-xanthine], the “Vmax (percent inhibition of feeding at the highest dose used)” value [1] is reported as 95% and the “EC50 (spray concentration required to cause 50% inhibition of feeding)” value [1] is reported as 0.3 % (gm/100 ml).
With Cc1nc2[nH]c(=O)[nH]c(=O)c2[nH]1 [Example 36, 8-methyl-xanthine] the “Vmax (percent inhibition of feeding at the highest dose used)” value [1] was 35% and the “EC50 (spray concentration required to cause 50% inhibition of feeding)” value [1] was > 3 % (gm/100 ml).
With CC(=O)n1cnc2c1c(=O)n(C)c(=O)n2C [Example 41, 1,3-dimethyl-7-acetyl-xanthine] the “Vmax (percent inhibition of feeding at the highest dose used)” value [1] was 18% and the “EC50 (spray concentration required to cause 50% inhibition of feeding)” value [1] was > 3 % (gm/100 ml).
For Cn1c(=O)c2[nH]c(-c3ccccc3)nc2n(C)c1=O [Example 42, 1,3-dimethyl-8-phenyl-xanthine], the “PDE inhibition (in words)” value ([2]; FIG. 1D) was “very weak PDE inhibitor”, the “antifeeding effect (in words)” value ([1]; FIG. 1C, listed as 8-phenyltheophylline) was “relatively weak effects; also recorded: little antifeeding effect” and the “Vmax (percent inhibition of feeding at the highest dose used)” value [1] was 38%. For the same molecule, the “EC50 (spray concentration required to cause 50% inhibition of feeding)” value [1] was > 3 % (gm/100 ml) and the Ki (adenosine receptor; Daly 1982) was 120 to 1000 nM.
With Cn1c(=O)[nH]c2[nH]c(=O)n(C)c2c1=O [Example 39, 1,7-dimethyl-uric acid] the “Vmax (percent inhibition of feeding at the highest dose used)” value [1] was 30% and the “EC50 (spray concentration required to cause 50% inhibition of feeding)” value [1] was > 3 % (gm/100 ml).
In the case of Cn1c(=O)[nH]c2nc[nH]c2c1=O [Example 33, 1-methyl-xanthine], the “Vmax (percent inhibition of feeding at the highest dose used)” value [1] is reported as 21% and the “EC50 (spray concentration required to cause 50% inhibition of feeding)” value [1] is reported as > 3 % (gm/100 ml).
With Cn1cnc2c1c(=O)[nH]c(=O)n2C [Example 27, 3,7-dimethyl-xanthine (theobromine), reference compound] the “Vmax (percent inhibition of feeding at the highest dose used)” value [1] was 87% and the “EC50 (spray concentration required to cause 50% inhibition of feeding)” value [1] was 1.0 % (gm/100 ml).
For CCOP(=O)(OCC)OP(=O)(OCC)OCC [TEPP], the “direct effect on cockroach brain adenylate cyclase (in words)” value (“direct effect” below) [3] is listed as “essentially no direct effects”.
In the case of Cc1ccc2nc3sc(=O)sc3nc2c1 [Oxythioquinox], the “direct effect” value [3] is given as “essentially no direct effects”, the “effect on cockroach brain phosphodiesterase (in words)” value [4] is given as “most potent inhibitor” and the “inhibition of cockroach brain phosphodiesterase” value [4] is given as “over 80%”.
For CC(O)Cn1cnc2c1c(=O)n(C)c(=O)n2C (stereo not drawn) [Example 25, 1,3-dimethyl,7-(beta-hydroxypropyl-xanthine)], the “Vmax (percent inhibition of feeding at the highest dose used)” value [1] was 95% and the “EC50 (spray concentration required to cause 50% inhibition of feeding)” value [1] was 1.5 % (gm/100 ml).
With CCCCn1c(=O)c2[nH]cnc2n(CCCC)c1=O [Example 31, 1,3-dibutyl-xanthine] the “Vmax (percent inhibition of feeding at the highest dose used)” value [1] was 90% and the “EC50 (spray concentration required to cause 50% inhibition of feeding)” value [1] was 0.044 % (gm/100 ml).
With O=c1c2[nH]cnc2n(Cc2ccccc2)c(=O)n1Cc1ccccc1 [Example 19, 1,3-dibenzyl-xanthine] the “Vmax (percent inhibition of feeding at the highest dose used)” value [1] was 70% and the “EC50 (spray concentration required to cause 50% inhibition of feeding)” value [1] was 0.45 % (gm/100 ml).
For C=CCn1c(=O)c2[nH]cnc2n(CC=C)c1=O [Example 18, 1,3-diallyl-xanthine], the “Vmax (percent inhibition of feeding at the highest dose used)” value [1] was 99% and the “EC50 (spray concentration required to cause 50% inhibition of feeding)” value [1] was 0.35 % (gm/100 ml).
In the case of CC(C)CCn1c(=O)c2[nH]cnc2n(CC(C)C)c1=O [Example 21, 1-isoamyl,3-isobutyl-xanthine], the “Vmax (percent inhibition of feeding at the highest dose used)” value [1] is reported as greater than 52% and the “EC50 (spray concentration required to cause 50% inhibition of feeding)” value [1] is reported as 0.2 % (gm/100 ml).
For ClC1=C(Cl)[C@]2(Cl)[C@@H]3[C@@H]4C[C@@H]([C@H]5O[C@@H]45)[C@@H]3[C@@]1(Cl)C2(Cl)Cl [Dieldrin], the “direct effect” value [3] is listed as “essentially no direct effects” and the “effect on cockroach brain phosphodiesterase (in words)” value [4] is listed as “activators of phosphodiesterase”.
In the case of O=c1[nH]c(=O)c2[nH]cnc2[nH]1 [Example 32, xanthine], the “Vmax (percent inhibition of feeding at the highest dose used)” value [1] is reported as 0% and the “EC50 (spray concentration required to cause 50% inhibition of feeding)” value [1] is reported as > 3 % (gm/100 ml).
For Cn1c(=O)c2c([nH]c(=O)n2C)n(C)c1=O [Example 40, 1,3,7-trimethyl-uric acid], the “Vmax (percent inhibition of feeding at the highest dose used)” value [1] was 40% and the “EC50 (spray concentration required to cause 50% inhibition of feeding)” value [1] was > 3 % (gm/100 ml).
In the case of CCn1c(=O)n(CCc2ccccc2)c(=O)c2[nH]cnc21 [Example 22, 1-phenethyl,3-ethyl-xanthine], the “Vmax (percent inhibition of feeding at the highest dose used)” value [1] is reported as 96% and the “EC50 (spray concentration required to cause 50% inhibition of feeding)” value [1] is reported as 0.6 % (gm/100 ml).
For COc1ccc(Cc2nccc3cc(OC)c(OC)cc23)cc1OC [papavarine, reference compound], the Ki ([2]; read-out: Ki, insect PDE) was 40 µM and the “EC50, ability of Manducca to feed” value ([1]; in vivo) was 0.1 % spray.
In the case of Clc1ccc(C(c2ccc(Cl)cc2)C(Cl)(Cl)Cl)cc1 [DDT], the “direct effect” value [3] is listed as “essentially no direct effects” and the “effect on cockroach brain phosphodiesterase (in words)” value [4] is listed as “activators of phosphodiesterase”.
For CNC(=O)O/N=C/C(C)(C)SC [Aldicarb], the “direct effect” value [3] is given as “essentially no direct effects”.
In the case of COc1nc2c(c(=O)n(C)c(=O)n2C)n1C [Example 26, 1,3,7-trimethyl,8-methoxy-xanthine], the “Vmax (percent inhibition of feeding at the highest dose used)” value [1] is reported as 86% and the “EC50 (spray concentration required to cause 50% inhibition of feeding)” value [1] is reported as 0.5 % (gm/100 ml).
In the case of CC(C)Cn1c(=O)n(C)c(=O)c2[nH]cnc21 [Example 20, 1-methyl,3-isobutyl-xanthine], the “EC50, inhibition of reproduction” value ([5]; chronic tests) is reported as 0.2%, the effect on adults ([5]; doses up to 3%) is reported as “unaffected” and the “EC50, inhibition of reproduction” value ([6]; chronic tests) is reported as 0.2%. The effect on adults ([6]; doses up to 3%) was “unaffected”, the “potency in PDE inhibition relative to theophylline” value [2] was “about 10 fold” and the “EC50, killing of larvae” value (Culex (mosquito) larvae) was 0.007%. For the same molecule, the “antifeeding effects in the presence of diltiazem and procaine” value ([1]; Example 13) was “neither reversing the observed antifeeding effects”, the “pestistatic and pesticidal effects in the presence of D600, verapamil, and nimodipine” value ([1]; Example 14) was “appeared unaffected” and the “Vmax (percent inhibition of feeding at the highest dose used)” value [1] was 95%. The “potency in disruption of feeding relative to theophylline” value ([1]; in vivo) was “about 10 fold”, the “EC50 (spray concentration required to cause 50% inhibition of feeding)” value [1] was 0.3 % (gm/100 ml) and the “potency in blocking adenosine receptors compared with theophylline (in words)” value (adenosine receptor) was “roughly equally potent”.
For C=C(C)[C@H]1Cc2c(ccc3c2O[C@@H]2COc4cc(OC)c(OC)cc4[C@@H]2C3=O)O1 [Rotenone], the “direct effect” value [3] is listed as “essentially no direct effects”.
In the case of Cn1c(=O)c2ncn(C)c2n(C)c1=O [Example 45, 1,3,9-trimethyl-xanthine], the “pesticidal and pestistatic activity class (active / inactive / weakly active)” value ([1]; Table 1 grouping) is reported as “weakly active”, the “Vmax (percent inhibition of feeding at the highest dose used)” value [1] is reported as 50% and the “EC50 (spray concentration required to cause 50% inhibition of feeding)” value [1] is reported as > 3 % (gm/100 ml).
In the case of Cc1cc(OC(=O)N(C)C)nn1C(=O)N(C)C [Dimetilan], the “direct effect” value [3] is given as “essentially no direct effects”.
With CCCn1c(=O)c2[nH]c(-c3ccccc3)nc2n(CCC)c1=O [Example 43, 1,3-dipropyl-8-phenyl-xanthine] the “Vmax (percent inhibition of feeding at the highest dose used)” value [1] was 0% and the “EC50 (spray concentration required to cause 50% inhibition of feeding)” value [1] was > 3 % (gm/100 ml).
For CCCn1c(=O)c2c(ncn2Cc2ccccc2)n(CCC)c1=O [Example 30, 1,3-dipropyl,7-benzyl-xanthine], the “Vmax (percent inhibition of feeding at the highest dose used)” value [1] was 96% and the “EC50 (spray concentration required to cause 50% inhibition of feeding)” value [1] was 0.08 % (gm/100 ml).
In the case of Cn1cnc2[nH]c(=O)[nH]c(=O)c21 [Example 35, 7-methyl-xanthine], the “Vmax (percent inhibition of feeding at the highest dose used)” value [1] is reported as 29% and the “EC50 (spray concentration required to cause 50% inhibition of feeding)” value [1] is reported as > 3 % (gm/100 ml).
In the case of COP(=O)(OC)Oc1ccc([N+](=O)[O-])cc1 [methylparaoxon], the “direct effect” value [3] is listed as “essentially no direct effects”.
In the case of CCCn1c(=O)c2c(ncn2C)n(CCC)c1=O [Example 28, 1,3-dipropyl,7-methyl-xanthine], the “Vmax (percent inhibition of feeding at the highest dose used)” value [1] is reported as 84% and the “EC50 (spray concentration required to cause 50% inhibition of feeding)” value [1] is reported as 0.48 % (gm/100 ml).
In the case of CCn1c(=O)c2[nH]cnc2n(CC)c1=O [Example 16, 1,3-diethyl-xanthine], the “Vmax (percent inhibition of feeding at the highest dose used)” value [1] is reported as 98% and the “EC50 (spray concentration required to cause 50% inhibition of feeding)” value [1] is reported as 0.33 % (gm/100 ml).
In the case of CCCn1c(=O)c2[nH]cnc2n(CCC)c1=O [Example 17, 1,3-dipropyl-xanthine], the “Vmax (percent inhibition of feeding at the highest dose used)” value [1] is reported as 95% and the “EC50 (spray concentration required to cause 50% inhibition of feeding)” value [1] is reported as 0.035 % (gm/100 ml).
In the case of Cn1c(=O)c2c(nc(Cl)n2C)n(C)c1=O [Example 44, 1,3,7-trimethyl-8-chloro-xanthine], the “Vmax (percent inhibition of feeding at the highest dose used)” value [1] is reported as 40% and the “EC50 (spray concentration required to cause 50% inhibition of feeding)” value [1] is reported as > 3 % (gm/100 ml).
In the case of Cn1c(=O)[nH]c(=O)c2[nH]cnc21 [Example 34, 3-methyl-xanthine], the “Vmax (percent inhibition of feeding at the highest dose used)” value [1] is reported as 8% and the “EC50 (spray concentration required to cause 50% inhibition of feeding)” value [1] is reported as > 3 % (gm/100 ml).
For Cn1c(=O)c2ncn(C)c2n(C)c1=O [1,3,9-trimethyl-xanthine], the “activity of structurally similar compounds tested as described in Example 46” value [2] was “only weakly active”.
In the case of C=CCC1=C(C)C(OC(=O)C2C(C=C(C)C)C2(C)C)CC1=O (stereo not drawn) [Allethrin], the “direct effect” value [3] is listed as “essentially no direct effects”.
With CCCn1c(=O)c2c(ncn2CCC)n(CCC)c1=O [Example 29, 1,3,7-tripropyl-xanthine] the “Vmax (percent inhibition of feeding at the highest dose used)” value [1] was 95% and the “EC50 (spray concentration required to cause 50% inhibition of feeding)” value [1] was 0.19 % (gm/100 ml).
In the case of Cn1c(=O)[nH]c2ncn(C)c2c1=O [Example 38, 1,7-dimethyl-xanthine], the “activity of structurally similar compounds tested as described in Example 46” value [2] is reported as “inactive”, the “Vmax (percent inhibition of feeding at the highest dose used)” value [1] is reported as 30% and the “EC50 (spray concentration required to cause 50% inhibition of feeding)” value [1] is reported as > 3 % (gm/100 ml).
